This is an account of results in patent EP1943275B1, “INSULINOTROPIC COMPOUNDS AND USES THEREOF” (Activotec SPP Limited, priority 2005, dated 2010).

Ends that are not written are not given here. Some results are limits rather than exact numbers.

For data set [1] the following is noted: active form of GLP-1; DPP IV cleavage between Ala8 and Glu9; cited from earlier work.
The nature of data set [2]: Control study: chemical stability in PBS/triethanolamine solution in the absence of DPP-IV. The class given is physicochemical. To be noted: no DPP-IV; for percentage of each analogue remaining: PBS/TEthA, pH 7.5, 37°. The method, then: In the control study, peptides were incubated with PBS/triethanolamine solution in the absence of DPP-IV to measure their chemical stability.

In the next data set the test system is DPP-IV. Put plainly: Dipeptidyl peptidase IV (DPP-IV) assays (Example 10): DPP-IV digestion monitored by RP-HPLC. The class given is in vitro ADME. Conditions: PBS/TEthA, pH 7.5, 37°.
The next data set has as its system dipeptidyl peptidase IV. Put plainly: DPP-IV assay (Example 5): hydrolysis followed by HPLC and ES-MS. The class given is in vitro ADME. To be noted: After 18 hr incubation, 37°C, 50 mM triethanolamine buffer, pH 7.8, 11 milliunits DPP-IV. The method, then:
Biological Chemistry. 385, pp 169-177.
Briefly, 100 - 200 microgams of each peptide was dissolved in 0.5 ml of 50 mM triethanolamine buffer, pH 7.8. To this was added a 10 microlitre solution of 11 milliunits DPP-IV (Sigma) and the solutions incubated at 37°C for up to 42 hours. […] The incubations were terminated by addition of 5 microlitres TFA to each tube and 50 microlitre of each were injected onto a reversed phase 4.6 x 250 mm C18 HPLC column, eluting a gradient of 20% - 45% acetonitrile in 0.1 % TFA/water over 25 minutes. […] After 42 hours, the 2 analogues slowly degraded to a product that gave a mass spectrum consistent with the mass of the 9-37 sequence, indicating longer term instability of the urea bond. This represented as much as 15% of the product by HPLC. This degradation appeared to be non-DPP-IV related, since samples without enzyme gave the same profile.

For the compound `CC[C@H](C)[C@H](NC(=O)[C@H](Cc1ccccc1)NC(=O)[C@H](CCC(=O)O)NC(=O)[C@H](CCCCN)NC(=O)[C@H](C)NC(=O)[C@H](C)NC(=O)[C@H](CCC(N)=O)NC(=O)CNC(=O)[C@H](CCC(=O)O)NC(=O)[C@H](CC(C)C)NC(=O)[C@H](Cc1ccc(O)cc1)NC(=O)[C@H](CO)NC(=O)[C@H](CO)NC(=O)[C@@H](NC(=O)[C@H](CC(=O)O)NC(=O)[C@H](CO)NC(=O)[C@@H](NC(=O)[C@H](Cc1ccccc1)NC(=O)[C@@H](NC(=O)CNC(=O)[C@H](CCC(=O)O)NC(=O)[C@H](C)NC(=O)[C@@H](N)Cc1c[nH]cn1)[C@@H](C)O)[C@@H](C)O)C(C)C)C(=O)N[C@@H](C)C(=O)N[C@@H](Cc1c[nH]c2ccccc12)C(=O)N[C@@H](CC(C)C)C(=O)N[C@H](C(=O)N[C@@H](CCCCN)C(=O)NCC(=O)N[C@@H](CCCN=C(N)N)C(=O)NCC(=O)O)C(C)C` [Native GLP-1 7-37, glucagon-like peptide-1 (7-37)], the circulating half-life result in data set [1] is reported as “less than 2 minutes”.

With `CC[C@H](C)[C@H](NC(=O)[C@H](Cc1ccccc1)NC(=O)[C@H](CCC(=O)O)NC(=O)[C@H](CCCCN)NC(=O)[C@H](C)NC(=O)[C@H](C)NC(=O)[C@H](CCC(N)=O)NC(=O)CNC(=O)[C@H](CCC(=O)O)NC(=O)[C@H](CC(C)C)NC(=O)[C@H](Cc1ccc(O)cc1)NC(=O)[C@H](CO)NC(=O)[C@H](CO)NC(=O)[C@@H](NC(=O)[C@H](CC(=O)O)NC(=O)[C@H](CO)NC(=O)[C@@H](NC(=O)[C@H](Cc1ccccc1)NC(=O)[C@@H](NC(=O)CNC(=O)[C@H](CCC(=O)O)NC(=O)CONC[C@H](C)NC(=O)[C@@H](N)Cc1c[nH]cn1)[C@@H](C)O)[C@@H](C)O)C(C)C)C(=O)N[C@@H](C)C(=O)N[C@@H](Cc1c[nH]c2ccccc12)C(=O)N[C@@H](CC(C)C)C(=O)N[C@H](C(=O)N[C@@H](CCCCN)C(=O)NCC(=O)N[C@@H](CCCNC(=N)N)C(=O)NCC(=O)O)C(C)C` [SP005], the “percentage of each analogue remaining” value in data set [2] (Time 0 hr) is 98%; in data set [2] (Time 22 hr) it was 95%; in the data set on DPP-IV (Time 0 hr), 95%; in the data set on DPP-IV (Time 22 hr) it was 95%.

Take `CC[C@H](C)[C@H](NC(=O)[C@H](Cc1ccccc1)NC(=O)[C@H](CCC(=O)O)NC(=O)[C@H](CCCCN)NC(=O)[C@H](C)NC(=O)[C@H](C)NC(=O)[C@H](CCC(N)=O)NC(=O)CNC(=O)[C@H](CCC(=O)O)NC(=O)[C@H](CC(C)C)NC(=O)[C@H](Cc1ccc(O)cc1)NC(=O)[C@H](CO)NC(=O)[C@H](CO)NC(=O)[C@@H](NC(=O)[C@H](CC(=O)O)NC(=O)[C@H](CO)NC(=O)[C@@H](NC(=O)[C@H](Cc1ccccc1)NC(=O)[C@@H](NC(=O)CNC(=O)[C@H](CCC(=O)O)NC(=O)CNNC(=O)[C@@H](N)Cc1c[nH]cn1)[C@@H](C)O)[C@@H](C)O)C(C)C)C(=O)N[C@@H](C)C(=O)N[C@@H](Cc1c[nH]c2ccccc12)C(=O)N[C@@H](CC(C)C)C(=O)N[C@H](C(=O)N[C@@H](CCCCN)C(=O)NCC(=O)N[C@@H](CCCNC(=N)N)C(=O)NCC(=O)O)C(C)C` [SP006, L-His-NH-NH-CH2-C(O)-Glu9-37]: the “percentage of each analogue remaining” value stood at 98% in data set [2] (Time 0 hr) and 95% in the data set with DPP-IV (Time 0 hr).

Take `CC[C@H](C)[C@H](NC(=O)[C@H](Cc1ccccc1)NC(=O)[C@H](CCC(=O)O)NC(=O)[C@H](CCCCN)NC(=O)[C@H](C)NC(=O)[C@H](C)NC(=O)[C@H](CCC(N)=O)NC(=O)CNC(=O)[C@H](CCC(=O)O)NC(=O)[C@H](CC(C)C)NC(=O)[C@H](Cc1ccc(O)cc1)NC(=O)[C@H](CO)NC(=O)[C@H](CO)NC(=O)[C@@H](NC(=O)[C@H](CC(=O)O)NC(=O)[C@H](CO)NC(=O)[C@@H](NC(=O)[C@H](Cc1ccccc1)NC(=O)[C@@H](NC(=O)CNC(=O)[C@H](CCC(=O)O)NC(=O)CNNC(=O)[C@H](C)NC(=O)[C@@H](N)Cc1c[nH]cn1)[C@@H](C)O)[C@@H](C)O)C(C)C)C(=O)N[C@@H](C)C(=O)N[C@@H](Cc1c[nH]c2ccccc12)C(=O)N[C@@H](CC(C)C)C(=O)N[C@H](C(=O)N[C@@H](CCCCN)C(=O)NCC(=O)N[C@@H](CCCNC(=N)N)C(=O)NCC(=O)O)C(C)C` [SP007, L-His-L-Ala-NH-NH-CH2-C(O)-Glu9-37]: the “percentage of each analogue remaining” value in data set [2] (Time 0 hr) is on record as 98%; in data set [2] (Time 22 hr), 95%; in data set [2] (Time 47 hr) it was 95%; in the data set with DPP-IV (Time 0 hr), 95%; with DPP-IV (Time 22 hr) it was below 5%.

Turning to `CC[C@H](C)[C@H](NC(=O)[C@H](Cc1ccccc1)NC(=O)[C@H](CCC(=O)O)NC(=O)[C@H](CCCCN)NC(=O)[C@H](C)NC(=O)[C@H](C)NC(=O)[C@H](CCC(N)=O)NC(=O)CNC(=O)[C@H](CCC(=O)O)NC(=O)[C@H](CC(C)C)NC(=O)[C@H](Cc1ccc(O)cc1)NC(=O)[C@H](CO)NC(=O)[C@H](CO)NC(=O)[C@@H](NC(=O)[C@H](CC(=O)O)NC(=O)[C@H](CO)NC(=O)[C@@H](NC(=O)[C@H](Cc1ccccc1)NC(=O)[C@@H](NC(=O)CNC(=O)[C@H](CCC(=O)O)NC(=O)[C@H](C)NNC(=O)[C@@H](N)Cc1c[nH]cn1)[C@@H](C)O)[C@@H](C)O)C(C)C)C(=O)N[C@@H](C)C(=O)N[C@@H](Cc1c[nH]c2ccccc12)C(=O)N[C@@H](CC(C)C)C(=O)N[C@H](C(=O)N[C@@H](CCCCN)C(=O)NCC(=O)N[C@@H](CCCNC(=N)N)C(=O)NCC(=O)O)C(C)C` [SP008, L-His-NH-NH-CH(CH3)-C(O)-Glu9-37], the “percentage of each analogue remaining” value in data set [2] (Time 0 hr) came to 98%; in the data set on DPP-IV (Time 0 hr), 95%; in the data set on DPP-IV (Time 22 hr) it was 95%. In data set [2] (after 47 hr, by HPLC), the non-enzymatic degradation is recorded as 20-25%.

Regarding HAEGTFTSDVSSYLEG [GLP-1 7-22], in the data set on dipeptidyl peptidase IV, the “cleavage of the N terminal dipeptide by DPP-IV” value is recorded as “completely cleaved”.
